≈ marks a conversion by molar mass, not a printed value. Read-outs that look alike come from different tables or passages of the source.
What was measured:
[1] = Body weight of S180 sarcoma-bearing mice; conditions: iv
Procedure: (§1) Test animals: Kunming kinds of healthy mice (19-21 g), 10 mice (5 male and 5 female)/group, from Beijing Institute of Military Medical Sciences Animal Center.
(§2) Xenografts cultured S180 tumor cells were implanted subcutaneously into the flank region of mice and tumors were allowed to grow to the desired average size of 100 mg. The mice were randomized into control and treatment groups with 10 mice per group. The control group was injected with the vehicle used to dissolve the drug. Other groups received the test compounds (example compound 5, 9, 10, 11, 13, 18, 19, 22, 24, 35, 306 and positive group, cyclophosphamide (CTX) and 5-fluorouracil (5-FU)) at the dose and schedule as indicated in Table VI. Injections were I.V. via the tail vein.

mice sarcoma S180 = experiment: Growth inhibition of S180 sarcoma in mice; format: in vivo, Kunming mice; set-up: Inhibition rate (%): concentration or dose not given beside the values; conditions: for Tumor weight / Inhibition rate (%): S180 sarcoma, Kunming mice, iv; for Inhibition rate (%): *P<0.01, **p<0.001 vs control; for anti-tumor efficacy, statistical significance: S180 sarcoma in mice, in words
Procedure: as §1
Tumor strains: mice sarcoma S180 for ascites passaged from Beijing Academy of Military Medical Institute of Pharmacology.
as §2

[2] = tested on: human colorectal cancer cell line HT29; experiment: In vitro anti-cancer cell experiment (MTT), HT29; format: cell-based; conditions: for anti-proliferative effect on HT29: HT29, in words; for IC50: Homo sapiens, HT-29
Procedure: (§3) a. Cell lines: Human pancreatic cancer cell line Panc-1, human colorectal cancer cell line HT29 and human lung cancer cell line NCI—H460; the medium: s DMEM (Gibco BRL), containing 10% fetal calf serum (Gibco BRL) and 2 mM L-glutamine (Gibco BRL).
(§4) b. Test samples: example compounds 5, 9, 10, 22 and 24. The samples were dissolved in dimethyl sulfoxide (DMSO, Sigma, United States) and medium was added to the final concentration of 0.5%. Cisplatin was as positive control of (CDDP, purity 96%, from Kunming Institute of Precious Metals).
(§5) c. Method: cells were digested with trypsin and dispersed into single cells in the medium containing penicillin (25 U/ml) and streptomycin (25 μg/ml). The cells were seeded in 96-well culture plates (Corning Incorporated), at 37° C., in a humidified atmosphere with 5% CO2 present for 24 hours. The culture medium was removed, […] test compounds were added, cultured for 48 hours. Culture medium was removed and […] (MTT, USA Sigma products) was added. The result was assayed by SK601-based microplate reader (Japan Seikagaku company's products), 570 nm/630 nm optical density (OD).
(§6) Calculation of cell viability: (Experimental group OD/control OD)×100%; Positive control CDDP was treated in the same way.

[3] = tested on: Human pancreatic cancer cell line Panc-1; experiment: In vitro anti-cancer cell experiment (MTT), Panc-1; format: cell-based; conditions: for anti-proliferative effect on Panc-1: Panc-1, in words
Procedure: as §3, §4, §5, §6

[4] = tested on: human lung cancer cell line NCI-H460; experiment: In vitro anti-cancer cell experiment (MTT), NCI-H460; format: cell-based
Procedure: as §3, §4, §5, §6

[5] = HT29 cells, 48 hours, MTT, read-out: IC50 HT29
[6] = NCI-H460 cells, 48 hours, MTT, read-out: IC50 NCI-H460
[7] = HT29, text value, P<0.05, read-out: IC50 (anti-proliferative effect on HT29)
[8] = NCI-H460, text value, P<0.05, read-out: IC50 (anti-proliferative effect on NCI-H460)

SMILES | IC50 [2, 5] [µg/mL] | IC50 [4, 6] [nM] | IC50 [2, 7] [µg/mL] | IC50 ([3]; Homo sapiens, Panc-1, text value, P<0.05, read-out: IC50 (anti-proliferative effect on Panc-1)) [µg/mL] | IC50 [4, 8] [µg/mL] | body Weight (g) After ad. ([1]; mouse, in vivo) [g] | body Weight (g) Before ad. ([1]; mouse, in vivo) [g] | Tumor weight (mice sarcoma S180) [g] | Inhibition rate (%) (mice sarcoma S180) | anti-proliferative effect on HT29 [2] | anti-proliferative effect on Panc-1 [3] | anti-tumor efficacy, statistical significance (mice sarcoma S180) | body Weight (g) After ad. ([1]; after administration, S180 mice) [g] | body Weight (g) Before ad. ([1]; before administration, S180 mice) [g]
COC(=O)/C(C)=C\CC12OC(C)(C)C3CC(C1=O)C1C4=C(Nc5ncnn51)c1c(O)c5c(c(CC=C(C)C)c1OC432)OC(C)(CCC=C(C)C)C=C5 (stereo not shown) [Compound 18] | – | – | – | – | – | 27.37 ± 3.92 | 20.16 ± 0.90 | 1.42 ± 0.52 | 25.26% | – | – | – | – | –
COC(=O)/C(C)=C\CC12OC(C)(C)C3CC(C1=O)C1C4=C(Nc5nccn51)c1c(OCCNCCO)c5c(c(CC=C(C)C)c1OC432)OC(C)(CCC=C(C)C)C=C5 (stereo not shown) [Compound 35] | – | – | – | – | – | 26.86 ± 1.81 | 20.08 ± 1.92 | 0.78 ± 0.33 | 59.25** % | – | – | statistically significant | – | –
COC(=O)/C(C)=C\CC12OC(C)(C)C3CC(C=C4C(=O)c5c(OC(=O)CCC(=O)N6CCN(C)CC6)c6c(c(CC=C(C)C)c5OC431)OC(C)(CCC=C(C)C)C=C6)C2=O (stereo not shown) [Compound 11] | – | – | – | – | – | 26.30 ± 3.62 | 19.92 ± 1.47 | 1.35 ± 0.59 | 31.01* % | – | – | – | – | –
COC(=O)/C(C)=C\CC12OC(C)(C)C3CC(C1=O)C1C4=C(c5ccccc5C4=O)N4CCNC45c4c(O)c6c(c(CC=C(C)C)c4OC32C15)OC(C)(CCC=C(C)C)C=C6 (stereo not shown) [Compound 306] | – | – | – | – | – | 26.98 ± 3.02 | 20.75 ± 1.33 | 1.29 ± 0.49 | 36.77* % | – | – | – | – | –
O=P1(N(CCCl)CCCl)NCCCO1 (stereo not shown) [CTX, cyclophosphamide, reference compound] | – | – | – | – | – | – | – | 1.02 ± 0.88 | 46.5* % | – | – | – | 26.32 ± 3.58 | 21.48 ± 1.60
O=c1[nH]cc(F)c(=O)[nH]1 [Compound 5-FU, 5-fluorouracil, reference compound] | 14.4 (≈ 110 µM) | – | – | – | – | 28.55 ± 2.38 | 22.59 ± 1.46 | 1.18 ± 0.49 | 42.8* % | – | – | – | – | –
COC(=O)/C(C)=C\CC12OC(C)(C)C3CC(C1=O)C(N1CCOCC1)C1C(=O)c4c(OC(=O)CCl)c5c(c(CC=C(C)C)c4OC132)OC(C)(CCC=C(C)C)C=C5 (stereo not shown) [Compound 13] | – | – | – | – | – | 27.59 ± 2.52 | 21.76 ± 1.93 | 1.06 ± 0.70 | 45** % | – | – | – | – | –

Further lines, with some results ahead:

IC50 [2, 5] [µg/mL] | IC50 [4, 6] [nM] | IC50 [2, 7] [µg/mL] | IC50 ([3]; Homo sapiens, Panc-1, text value, P<0.05, read-out: IC50 (anti-proliferative effect on Panc-1)) [µg/mL] | IC50 [4, 8] [µg/mL] | SMILES | body Weight (g) After ad. ([1]; mouse, in vivo) [g] | body Weight (g) Before ad. ([1]; mouse, in vivo) [g] | Tumor weight (mice sarcoma S180) [g] | Inhibition rate (%) (mice sarcoma S180) | anti-proliferative effect on HT29 [2] | anti-proliferative effect on Panc-1 [3] | anti-tumor efficacy, statistical significance (mice sarcoma S180) | body Weight (g) After ad. ([1]; after administration, S180 mice) [g] | body Weight (g) Before ad. ([1]; before administration, S180 mice) [g]
38.3 (≈ 50.6 µM) | 17.2 | – | – | – | COC(=O)/C(C)=C\CC12OC(C)(C)C3CC(C1=O)C1C4=C(Nc5nc6ccccc6n51)c1c(O)c5c(c(CC=C(C)C)c1OC432)OC(C)(CCC=C(C)C)C=C5 (stereo not shown) [Compound 10] | 25.12 ± 4.64 | 20.32 ± 1.22 | 1.24 ± 0.73 | 39.36* % | showed anti-proliferative effect | showed anti-proliferative effect | – | – | –
3.62 (≈ 4.45 µM) | 4.89 | 3.62 (≈ 4.45 µM) | 3.26 (≈ 4.01 µM) | 4.73 | COC(=O)/C(C)=C\CC12OC(C)(C)C3CC(C1=O)C1C4=C(c5ccccc5C4=O)N(CCN)C4=C1C32Oc1c(CC=C(C)C)c2c(c(O)c14)C=CC(C)(CCC=C(C)C)O2 (stereo not shown) [Compound 22] | 25.77 ± 2.33 | 19.34 ± 0.81 | 0.88 ± 0.37 | 53.19** % | showed anti-proliferative effect | showed anti-proliferative effect | statistically significant | – | –
54.1 (≈ 62.2 µM) | 13.7 | – | – | – | COC(=O)/C(C)=C\CC12OC(C)(C)C3CC(C1=O)C1C4=C(Nc5nccn51)c1c(O[C@H]5O[C@@H](CO)[C@H](O)[C@@H](O)[C@@H]5O)c5c(c(CC=C(C)C)c1OC432)OC(C)(CCC=C(C)C)C=C5 (stereo partly shown) [Compound 24] | 27.61 ± 2.89 | 20.71 ± 1.75 | 0.65 ± 0.37 | 62.87** % | showed anti-proliferative effect | showed anti-proliferative effect | statistically significant | – | –
35.6 (≈ 36.9 µM) | 7.73 | – | – | – | COC(=O)/C(C)=C\CC12OC(C)(C)[C@H]3C[C@@H](C=C4C(=O)c5c(OC(=O)c6ccc(O[C@@H]7O[C@@H]8COC(C)(C)O[C@H]8[C@H](O)[C@H]7O)cc6)c6c(c(CC=C(C)C)c5OC431)OC(C)(CCC=C(C)C)C=C6)C2=O (stereo partly shown) [Compound 5] | 27.39 ± 2.91 | 21.53 ± 1.77 | 1.08 ± 0.63 | 45** % | – | – | – | – | –
1.03 (≈ 1.46 µM) | 3.38 | 1.03 (≈ 1.46 µM) | – | 6.18 | COC(=O)/C(C)=C\CC12OC(C)(C)C3CC(C1=O)C1C4=C(Nc5nccn51)c1c(O)c5c(c(CC=C(C)C)c1OC432)OC(C)(CCC=C(C)C)C=C5 (stereo not shown) [Compound 9] | 23.58 ± 1.86 | 20.53 ± 1.16 | 0.56 ± 0.13 | 70.21** % | showed anti-proliferative effect | showed anti-proliferative effect | statistically significant | – | –
